# Patent US20250352520A1, “USE OF DEXPRAMIPEXOLE FOR THE TREATMENT OF EOSINOPHILIC COPD” (Areteia Therapeutics, Inc., priority 2024, published 2025)
# Conditions: Week 16; >=50% AEC reduction at Week 16
smiles,measurement,value
"CCCN[C@@H]1CCc2nc(N)sc2C1 [Dexpramipexole, (6R)-2-amino-4,5,6,7-tetrahydro-6-(propylamino)benzothiazole]","Pre-BD FEF25-75 % change from baseline, Max",27%
same,"Pre-BD FEF25-75 % change from baseline, Mean ± SD",13.6 ± 13.59%
same,"Pre-BD FEF25-75 % change from baseline, Median",13.7%
same,"Pre-BD FEF25-75 % change from baseline, Min",0%
same,"Pre-BD FEF25-75 % change from baseline, Q1",0%
same,"Pre-BD FEF25-75 % change from baseline, Q3",27%
same,"Pre-BD FEF25-75 Observed, Max",1170 mL/s
same,"Pre-BD FEF25-75 Observed, Mean ± SD",736.7 ± 486.76 mL/s
same,"Pre-BD FEF25-75 Observed, Median",830.0 mL/s
same,"Pre-BD FEF25-75 Observed, Min",210 mL/s
same,"Pre-BD FEF25-75 Observed, Q1",210 mL/s
same,"Pre-BD FEF25-75 Observed, Q3",1170 mL/s
same,"Pre-BD FEF25-75 change from baseline, Max",250 mL/s
same,"Pre-BD FEF25-75 change from baseline, Mean ± SD",116.7 ± 125.83 mL/s
same,"Pre-BD FEF25-75 change from baseline, Median",100.0 mL/s
same,"Pre-BD FEF25-75 change from baseline, Min",0 mL/s
same,"Pre-BD FEF25-75 change from baseline, Q1",0 mL/s
same,"Pre-BD FEF25-75 change from baseline, Q3",250 mL/s
same,"Pre-BD FEV1 % change from baseline, Max",52%
same,"Pre-BD FEV1 % change from baseline, Mean ± SD",22.5 ± 25.80%
same,"Pre-BD FEV1 % change from baseline, Median",8.3%
same,"Pre-BD FEV1 % change from baseline, Min",7%
same,"Pre-BD FEV1 % change from baseline, Q1",7%
same,"Pre-BD FEV1 % change from baseline, Q3",52%
same,"Pre-BD FEV1 Observed, Max",1980 mL
same,"Pre-BD FEV1 Observed, Mean ± SD",1523.3 ± 657.29 mL
same,"Pre-BD FEV1 Observed, Median",1820.0 mL
same,"Pre-BD FEV1 Observed, Min",770 mL
same,"Pre-BD FEV1 Observed, Q1",770 mL
same,"Pre-BD FEV1 Observed, Q3",1980 mL
same,"Pre-BD FEV1 change from baseline, Max",680 mL
same,"Pre-BD FEV1 change from baseline, Mean ± SD",290.0 ± 340.73 mL
same,"Pre-BD FEV1 change from baseline, Median",140.0 mL
same,"Pre-BD FEV1 change from baseline, Min",50 mL
same,"Pre-BD FEV1 change from baseline, Q1",50 mL
same,"Pre-BD FEV1 change from baseline, Q3",680 mL
same,"Pre-BD FVC % change from baseline, Max",29%
same,"Pre-BD FVC % change from baseline, Mean ± SD",13.7 ± 13.73%
same,"Pre-BD FVC % change from baseline, Median",10.0%
same,"Pre-BD FVC % change from baseline, Min",2%
same,"Pre-BD FVC % change from baseline, Q1",2%
same,"Pre-BD FVC % change from baseline, Q3",29%
same,"Pre-BD FVC Observed, Max",3250 mL
same,"Pre-BD FVC Observed, Mean ± SD",2743.3 ± 470.57 mL
same,"Pre-BD FVC Observed, Median",2660.0 mL
same,"Pre-BD FVC Observed, Min",2320 mL
same,"Pre-BD FVC Observed, Q1",2320 mL
same,"Pre-BD FVC Observed, Q3",3250 mL
same,"Pre-BD FVC change from baseline, Max",730 mL
same,"Pre-BD FVC change from baseline, Mean ± SD",333.3 ± 351.62 mL
same,"Pre-BD FVC change from baseline, Median",210.0 mL
same,"Pre-BD FVC change from baseline, Min",60 mL
same,"Pre-BD FVC change from baseline, Q1",60 mL
same,"Pre-BD FVC change from baseline, Q3",730 mL
same,"Pre-BD Peak Flow % change from baseline, Max",115%
same,"Pre-BD Peak Flow % change from baseline, Mean ± SD",50.4 ± 56.32%
same,"Pre-BD Peak Flow % change from baseline, Median",21.5%
same,"Pre-BD Peak Flow % change from baseline, Min",14%
same,"Pre-BD Peak Flow % change from baseline, Q1",14%
same,"Pre-BD Peak Flow % change from baseline, Q3",115%
same,"Pre-BD Peak Flow Observed, Max",338 L/min
same,"Pre-BD Peak Flow Observed, Mean ± SD",240.0 ± 88.20 L/min
same,"Pre-BD Peak Flow Observed, Median",215.0 L/min
same,"Pre-BD Peak Flow Observed, Min",167 L/min
same,"Pre-BD Peak Flow Observed, Q1",167 L/min
same,"Pre-BD Peak Flow Observed, Q3",338 L/min
same,"Pre-BD Peak Flow change from baseline, Max",181 L/min
same,"Pre-BD Peak Flow change from baseline, Mean ± SD",80.0 ± 87.88 L/min
same,"Pre-BD Peak Flow change from baseline, Median",38.0 L/min
same,"Pre-BD Peak Flow change from baseline, Min",21 L/min
same,"Pre-BD Peak Flow change from baseline, Q1",21 L/min
same,"Pre-BD Peak Flow change from baseline, Q3",181 L/min
